Assay results as given in PubChem BioAssay AID256 (DTP/NCI, 2004).
“And” between values parts separate entries of the source, which are not always exact repeats. Equal values may be shown once. Toxic doses and inconclusive results are not listed. How the source made its calls: active means survival T/C of 150% or more; inactive means T/C below 125% in these data.

Tested on: CD2F1 mice, L1210 leukemia ip, survival T/C
Assay: NCI In Vivo Anticancer Drug Screen. Data for tumor model L1210 Leukemia (intraperitoneal) in CD2F1 (CDF1) mice
Settings: higher = longer survival
How it was run: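 Antitumor effect is scored in animals hosting a serially transplanted tumor. Values compare compound-dosed animals against vehicle-only controls as a simple quotient.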

[1] = endpoint: mean survival time, dose: 100.0 mg/kg/injection, schedule: Q01DX009 (ip), vehicle: saline with Tween-80
[2] = endpoint: mean survival time, dose: 100.0 mg/kg/injection, schedule: Q04DX003 (ip), vehicle: saline with Tween-80
[3] = endpoint: mean survival time, dose: 200.0 mg/kg/injection, schedule: Q01DX009 (ip), vehicle: saline with Tween-80
[4] = endpoint: mean survival time, dose: 200.0 mg/kg/injection, schedule: Q04DX003 (ip), vehicle: saline with Tween-80
[5] = endpoint: mean survival time, dose: 400.0 mg/kg/injection, schedule: Q01DX009 (ip), vehicle: saline with Tween-80
[6] = endpoint: mean survival time, dose: 400.0 mg/kg/injection, schedule: Q04DX003 (ip), vehicle: saline with Tween-80
[7] = endpoint: mean survival time, dose: 100.0 mg/kg/injection, schedule: Q01DX001 (ip), vehicle: saline
[8] = endpoint: mean survival time, dose: 200.0 mg/kg/injection, schedule: Q01DX001 (ip), vehicle: saline
[9] = endpoint: mean survival time, dose: 400.0 mg/kg/injection, schedule: Q01DX001 (ip), vehicle: saline
[10] = endpoint: mean survival time, dose: 100.0 mg/kg/injection, schedule: Q04DX002 (ip), vehicle: saline with Tween-80
[11] = endpoint: mean survival time, dose: 200.0 mg/kg/injection, schedule: Q04DX002 (ip), vehicle: saline with Tween-80

Measured: T/C

CCCCCCCCCCCCCCCCCCn1cnc2c(Cl)ncnc21
inactive: endpoint: mean survival time, dose: 12.5 mg/kg/injection, schedule: Q01DX005 (ip), vehicle: other 87 % of control | endpoint: mean survival time, dose: 25.0 mg/kg/injection, schedule: Q01DX005 (ip), vehicle: other 91 % of control | endpoint: mean survival time, dose: 50.0 mg/kg/injection, schedule: Q01DX005 (ip), vehicle: other 92 % of control | endpoint: mean survival time, dose: 200.0 mg/kg/injection, schedule: Q01DX005 (ip), vehicle: other 86 % of control

C=C(C(=O)O)C(N)C(=O)O (stereo not drawn)
inactive: endpoint: median survival time, dose: 25.0 mg/kg/injection, schedule: Q01DX009 (ip), vehicle: suspension in saline 96 % of control | endpoint: median survival time, dose: 50.0 mg/kg/injection, schedule: Q01DX009 (ip), vehicle: suspension in saline 108 % of control | endpoint: median survival time, dose: 100.0 mg/kg/injection, schedule: Q01DX009 (ip), vehicle: suspension in saline 103 % of control | endpoint: median survival time, dose: 200.0 mg/kg/injection, schedule: Q01DX009 (ip), vehicle: suspension in saline 94 % of control | endpoint: median survival time, dose: 400.0 mg/kg/injection, schedule: Q01DX009 (ip), vehicle: suspension in saline 91 % of control

CC(=O)NCc1cc(CNC(C)=O)c(C)cc1C
inactive: [1] 98 % of control | [2] 95 % of control | [3] 88 % of control | [4] 91 % of control | [5] 95 % of control | [6] 87 % of control

COc1cc([N+](=O)[O-])ccc1NC(=O)OC/C=C/c1ccccc1
inactive: [1] 92 % of control | [3] 91 % of control

N#CC12CCCC(=O)N1C=Cc1ccccc12 (stereo not drawn)
inactive: [7] 107 % of control | [8] 100 % of control | [9] 97 % of control

CCCCCCCCCCC(O)CCCCCCCCCC
inactive: [2] 100 % of control | [4] 90 % of control | [6] 90 % of control

CCCCC(O)C(=O)O (stereo not drawn)
inactive: endpoint: mean survival time, dose: 75.0 mg/kg/injection, schedule: Q01DX001 (ip), vehicle: saline 94 % of control | endpoint: mean survival time, dose: 150.0 mg/kg/injection, schedule: Q01DX001 (ip), vehicle: saline 96 % of control

COc1ccc(C2=CSc3ccccc3N2)cc1
inactive: [10] 96 % of control | [11] 104 % of control

O=Nc1ccc(O)cc1
inactive: endpoint: mean survival time, dose: 50.0 mg/kg/injection, schedule: Q04DX003 (ip), vehicle: saline with Tween-80 100 % of control | [2] 105 % of control and 107 % of control | [4] 95 % of control and 111 % of control

CC(O)C(=O)O.CCCCOC(=O)CC(O)(CC(=O)OCCCC)C(=O)OCCCC.[Cl-].[Cl-].[NH2-].[NH2-].[Pt+4]
inactive: endpoint: mean survival time, dose: 3.13 mg/kg/injection, schedule: Q04DX003 (ip), vehicle: Klucel (hydroxypropylcellulose) (HPC) 104 % of control and 108 % of control and 105 % of control | endpoint: mean survival time, dose: 6.25 mg/kg/injection, schedule: Q04DX003 (ip), vehicle: Klucel (hydroxypropylcellulose) (HPC) 108 % of control and 111 % of control and 98 % of control | endpoint: mean survival time, dose: 12.5 mg/kg/injection, schedule: Q04DX003 (ip), vehicle: Klucel (hydroxypropylcellulose) (HPC) 109 % of control [middle of 4 runs] | endpoint: mean survival time, dose: 25.0 mg/kg/injection, schedule: Q04DX003 (ip), vehicle: Klucel (hydroxypropylcellulose) (HPC) 96 % of control and 113 % of control and 104 % of control | endpoint: mean survival time, dose: 100.0 mg/kg/injection, schedule: Q04DX003 (ip), vehicle: Klucel (hydroxypropylcellulose) (HPC) 95 % of control | endpoint: mean survival time, dose: 200.0 mg/kg/injection, schedule: Q04DX003 (ip), vehicle: Klucel (hydroxypropylcellulose) (HPC) 113 % of control

O=C1OC2CCC(Br)CC2C=C1C1CCC([N+](=O)[O-])CC1 (stereo not drawn)
inactive: [10] 108 % of control | [11] 100 % of control | endpoint: mean survival time, dose: 400.0 mg/kg/injection, schedule: Q04DX002 (ip), vehicle: saline with Tween-80 89 % of control

ClCC(CCl)c1nncc2ccccc12
inactive: [7] 94 % of control | [8] 97 % of control | [9] 93 % of control

CCCCCCCCCCCCCCCCCC[N+](CCO)(CCO)Cc1ccc(C[N+](CCO)(CCO)CCCCCCCCCCCCCCCCCC)cc1
inactive: endpoint: mean survival time, dose: 12.5 mg/kg/injection, schedule: Q04DX002 (ip), vehicle: saline with Tween-80 101 % of control | endpoint: mean survival time, dose: 25.0 mg/kg/injection, schedule: Q04DX002 (ip), vehicle: saline with Tween-80 101 % of control | endpoint: mean survival time, dose: 50.0 mg/kg/injection, schedule: Q04DX002 (ip), vehicle: saline with Tween-80 89 % of control

C=C1CC2C=CC1C2 (stereo not drawn) (tested in a mixture with another compound)
inactive: endpoint: mean survival time, dose: 80.5 mg/kg/injection, schedule: Q01DX009 (ip), vehicle: saline with Tween-80 90 % of control

CC1(C(=O)O)C2C3C=CC(C3)C21 (stereo not drawn)
inactive: [1] 100 % of control | [3] 97 % of control | [5] 103 % of control

N/C(=N/OCc1ccccc1)c1ncn(C2CCCC2)c1NC=O
inactive: endpoint: mean survival time, dose: 100.0 mg/kg/injection, schedule: Q01DX001 (ip), vehicle: other 112 % of control | endpoint: mean survival time, dose: 200.0 mg/kg/injection, schedule: Q01DX001 (ip), vehicle: other 104 % of control | endpoint: mean survival time, dose: 400.0 mg/kg/injection, schedule: Q01DX001 (ip), vehicle: other 102 % of control

CSc1nc2c(c(=O)[nH]1)CC(=O)N2
inactive: endpoint: median survival time, dose: 50.0 mg/kg/injection, schedule: Q01DX005 (ip), vehicle: saline 93 % of control | endpoint: median survival time, dose: 100.0 mg/kg/injection, schedule: Q01DX005 (ip), vehicle: saline 91 % of control | endpoint: median survival time, dose: 200.0 mg/kg/injection, schedule: Q01DX005 (ip), vehicle: saline 98 % of control

CCCCCC[C@H]([C@H](C)O)n1cnc2c(N)ncnc21
inactive: endpoint: mean survival time, dose: 0.38 mg/kg/injection, schedule: Q03HX024 (ip), vehicle: saline with Tween-80 92 % of control | endpoint: mean survival time, dose: 0.57 mg/kg/injection, schedule: Q03HX024 (ip), vehicle: saline with Tween-80 96 % of control | endpoint: mean survival time, dose: 1.3 mg/kg/injection, schedule: Q03HX024 (ip), vehicle: saline with Tween-80 102 % of control | endpoint: mean survival time, dose: 2.0 mg/kg/injection, schedule: Q03HX024 (ip), vehicle: saline with Tween-80 98 % of control | endpoint: mean survival time, dose: 3.0 mg/kg/injection, schedule: Q03HX024 (ip), vehicle: saline with Tween-80 96 % of control | endpoint: mean survival time, dose: 4.5 mg/kg/injection, schedule: Q03HX024 (ip), vehicle: saline with Tween-80 98 % of control | endpoint: mean survival time, dose: 5.0 mg/kg/injection, schedule: Q03HX024 (ip), vehicle: saline with Tween-80 104 % of control | endpoint: mean survival time, dose: 6.25 mg/kg/injection, schedule: Q01DX009 (ip), vehicle: Klucel (hydroxypropylcellulose) (HPC) 95 % of control and 100 % of control | endpoint: mean survival time, dose: 10.0 mg/kg/injection, schedule: Q03HX024 (ip), vehicle: saline with Tween-80 107 % of control | endpoint: mean survival time, dose: 12.5 mg/kg/injection, schedule: Q01DX009 (ip), vehicle: Klucel (hydroxypropylcellulose) (HPC) 98 % of control and 100 % of control | endpoint: mean survival time, dose: 25.0 mg/kg/injection, schedule: Q01DX009 (ip), vehicle: Klucel (hydroxypropylcellulose) (HPC) 100 % of control and 101 % of control | endpoint: mean survival time, dose: 25.0 mg/kg/injection, schedule: Q03HX024 (ip), vehicle: saline with Tween-80 105 % of control | endpoint: mean survival time, dose: 50.0 mg/kg/injection, schedule: Q01DX009 (ip), vehicle: Klucel (hydroxypropylcellulose) (HPC) 97 % of control and 100 % of control | endpoint: mean survival time, dose: 50.0 mg/kg/injection, schedule: Q03HX024 (ip), vehicle: saline with Tween-80 105 % of control | endpoint: mean survival time, dose: 100.0 mg/kg/injection, schedule: Q01DX009 (ip), vehicle: Klucel (hydroxypropylcellulose) (HPC) 95 % of control and 100 % of control | endpoint: mean survival time, dose: 100.0 mg/kg/injection, schedule: Q03HX024 (ip), vehicle: saline with Tween-80 96 % of control | endpoint: mean survival time, dose: 200.0 mg/kg/injection, schedule: Q01DX009 (ip), vehicle: Klucel (hydroxypropylcellulose) (HPC) 100 % of control | endpoint: median survival time, dose: 25.0 mg/kg/injection, schedule: Q01DX009 (ip), vehicle: Klucel (hydroxypropylcellulose) (HPC) 96 % of control | endpoint: median survival time, dose: 50.0 mg/kg/injection, schedule: Q01DX009 (ip), vehicle: Klucel (hydroxypropylcellulose) (HPC) 101 % of control | endpoint: median survival time, dose: 100.0 mg/kg/injection, schedule: Q01DX009 (ip), vehicle: Klucel (hydroxypropylcellulose) (HPC) 97 % of control

Cc1ccc(-c2[nH]c(=S)[nH]c(=O)c2CCO)cc1
inactive: [2] 91 % of control | [4] 97 % of control | [6] 93 % of control
